Assay: Determination of GC-odor threshold values (gas chromatograph with sniff port, panel of trained evaluators)
Conditions: absolute amount of compound delivered at the sniff port, identical conditions
Source text: As used herein, “odor threshold value” means the lowest concentration of a vapour in the air which can be detected by smell. Generally speaking, it can be said that a compound with a low odor threshold value is more powerful than a compound with a high odor threshold value and thus allows the use of very low concentration in a fragrance composition to achieve an olfactory effect.
EXAMPLE 24: DETERMINATION OF GC-ODOR THRESHOLD VALUES
According to standard procedures known to the person skilled in the art, threshold values for volatile perfumery compounds are determined on a gas chromatograph equipped with a sniff port by a panel of trained evaluators. The lowest concentration smelled by each panelist is recorded as the individual threshold value expressed in ng (absolute amount of compound delivered at the sniff port).
Under identical conditions the odor threshold value for the individual compounds was measured.
Work on CC1Cc2c(cccc2C2CC2)C1=O (centres unmarked) [Comparison Example 7, 4-cyclopropyl-2-methyl-2,3-dihydro-1H-inden-1-one] yielded an odor threshold value of 31.7 ng.
With CC1Cc2cccc(C3CC3)c2C1=O (centres unmarked) [7-cyclopropyl-2-methyl-2,3-dihydro-1H-inden-1-one] the odor threshold value was 4.31 ng.
CC(C)Cc1ccc2c(c1)CC(C)C2=O (centres unmarked) [Comparison Example 1, 5-isobutyl-2-methyl-2,3-dihydro-1H-inden-1-one] gave an odor threshold value of 1.56 ng.
Work on C=C(C)Cc1cccc2c1C(=O)C(C)C2 (centres unmarked) [2-methyl-7-(2-methylallyl)-2,3-dihydro-1H-inden-1-one] yielded an odor threshold value of 4.96 ng.
Compound C=C(C)Cc1cccc2c1CC(C)C2=O (centres unmarked) [Comparison Example 5, 2-methyl-4-(2-methylallyl)-2,3-dihydro-1H-inden-1-one] has an odor threshold value of 6.25 ng.
C=C(C)Cc1ccc2c(c1)C(=O)C(C)C2 (centres unmarked) [Example 22, 2-methyl-6-(2-methylallyl)-2,3-dihydro-1H-inden-1-one] showed an odor threshold value of 0.24 ng.
CCCc1cccc2c1CC(C)C2=O (centres unmarked) [Comparison Example 3, 2-methyl-4-propyl-2,3-dihydro-1H-inden-1-one] showed an odor threshold value of 6.25 ng.
CC1Cc2ccc(C3CC3)cc2C1=O (centres unmarked) [Example 11, 6-cyclopropyl-2-methyl-2,3-dihydro-1H-inden-1-one] gave an odor threshold value of 0.46 ng.
CC(C)Cc1ccc2c(c1)C(=O)C(C)C2 (centres unmarked) [Example 1, 6-isobutyl-2-methyl-2,3-dihydro-1H-inden-1-one] showed an odor threshold value of 0.06 ng.
Work on CCCc1ccc2c(c1)CC(C)C2=O (centres unmarked) [2-methyl-5-propyl-2,3-dihydro-1H-inden-1-one] yielded an odor threshold value of 0.98 ng.
In the case of CCCc1ccc2c(c1)C(=O)C(C)C2 (centres unmarked) [Example 7, 2-methyl-6-propyl-2,3-dihydro-1H-inden-1-one], the odor threshold value was 0.04 ng.

Source: patent US11020333B2, “Organic compounds” (Givaudan SA, priority 2016, dated 2021)
